# Results reported in patent US20230348464A1, “NOVEL VDAC1 INHIBITORS” (ABARCEO AB, priority 2020, published 2023).
# Biological target: T1, recombinant human VDAC1 (hVDAC1) (Homo sapiens, UniProt P21796)
# T1 construct: His (N); GST (N); purchased LSBio LS-G25810; host or cells: E. coli
# Assay: Microscale Thermophoresis (MST) binding assay with labeled VDAC1
# Conditions: MST plot of FIG. 1
# Excerpt: MicroScale Thermophoresis (MST) is a biophysical technique that measures the strength of interaction (affinity) between two molecules by detecting variations in fluorescence signal as a result of an IR-laser induced temperature change. The range of the variation in the fluorescence signal correlates with the binding of a ligand to a fluorescent target. By that it allows for quantitative analysis of molecular interactions in solution on the microliter scale with high sensitivity.The MST signal is composed of two major factors: The TRIC effect and the thermophoresis. TRIC stands for Temperature-Related Intensity-Change and describes how the fluorescence intensity of a fluorophore depends on the local temperature of the solution. For the vast majority of fluorophores, the fluorescence intensity decreases with increasing temperature. Most importantly, however, the extent of the temperature dependence is strongly related to the chemical environment of the fluorophore. This environment is sensitively affected by the binding of a ligand molecule to the fluorescently labeled target molecule (via conformational changes or ligand-dye proximity). The second component of the MST-signal, the thermophoresis describes the movement of molecules along temperature gradients which results in a quantifiable change of the local concentration of the target molecules. As these target molecules are fluorescently labeled in MST, such concentration changes can be monitored simply by fluorescence measurements. This directed movement of molecules depends on their molecular size, charge, and hydration shell. Binding of a ligand to a target molecule leads to the change of at least one of these parameters and therefore to an altered thermophoretic movement of the target-ligand complex compared to the single molecules alone. In sum, both TRIC and thermophoresis contribute to the overall MST-signal, which is detected by fluorescence measurement. Due to this robust physical principle and direct monitoring, MST can be used for determining the affinity and binding strength of almost any kind of molecular interaction or modification of small molecules, proteins, peptides, DNA, sugars, or molecular complexes.
# Reconstituted N-terminal His-GST tagged E. coli recombinant human VDAC1 (hVDAC1) was buffer exchanged into protein labeling buffer due to the primary amine of the Tris lyophilization buffer interferes with NHS-based labeling. The labeling buffer was kept as close to the storage buffer of the target protein as given on the protein data sheet (LSBio LS-G25810). Tris was replaced by HEPES. PLURONIC® F-127 was added to 0.05% in order to enhance protein recovery in the final dye removal step. The total volume of the labeling batch was 100 µL. The labeling time was 30 minutes. The labeling reaction was performed at room temperature. Any unbound or unreacted dye was separated from the labeled protein on a gravity-flow gel-filtration column (GE Healthcare, PD Minitrap G-25, GE28-9180-07). The final target buffer was kept as close to the original protein storage buffer as possible. It contained Tris again instead of HEPES.
# The first step of the technical assay establishment was a so-called “noise test”. In this test, the intrinsic MST-noise of the labeled target protein was tested. Subsequently, a reference compound or positive control (CAS number: 2086257-77-2) was characterized to confirm previously reported VDAC1 binding (Zhang et al (2019)). Preserving Insulin Secretion in Diabetes by Inhibiting VDAC1 Overexpression and Surface Translocation in β Cells″. Cell Metabolism 29, 64-77.). In short, serial dilutions of the compound having CAS number: 2086257-77-2 was prepared in a way to match the final buffer conditions in the reaction mix (assay buffer). The highest concentration of ligand was 10.0 mM and the lowest 4.88 µM. A total of 12 dilution steps were prepared. […]
# T1 sequence (P21796 whole entry): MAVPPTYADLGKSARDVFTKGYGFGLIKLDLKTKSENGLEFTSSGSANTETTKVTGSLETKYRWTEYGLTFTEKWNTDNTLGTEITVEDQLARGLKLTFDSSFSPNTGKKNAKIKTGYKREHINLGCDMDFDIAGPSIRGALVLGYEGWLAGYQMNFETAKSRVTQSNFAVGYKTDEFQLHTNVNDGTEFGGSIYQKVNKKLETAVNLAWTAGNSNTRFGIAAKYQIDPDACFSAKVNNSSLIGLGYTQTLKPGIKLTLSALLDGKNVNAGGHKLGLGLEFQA
Structure (SMILES),S/N of MST plot,dFnorm of MST plot
"O=C(CC(CO)N1CC2=C(CN(c3ccc(OC(F)(F)F)cc3)C2)C1)Nc1ccc(Cl)cc1 (centres unmarked) [Example 4, N-(4-chlorophenyl)-4-hydroxy-3-{5-[4-(trifluoromethoxy)phenyl]-1H,2H,3H,4H,5H,6H-pyrrolo[3,4-c]pyrrol-2-yl}butanamide]",20.1,23.9

# Same assay, conditions: MST, 5 nM labeled VDAC1, 25° C., 12-point dilution 100-0.04 µM; read-out: VDAC1 affinity (KD)
row,Structure (SMILES),Kd [µM]
1,"O=C(CC(CO)N1CCOC2(CCN(c3ccc(OC(F)(F)F)cc3)C2)C1)Nc1ccc(Cl)cc1 (centres unmarked) [Example 5, N-(4-chlorophenyl)-4-hydroxy-3-{2-[4-(trifluoromethoxy)phenyl]-6-oxa-2,9-diazaspiro[4.5]decan-9-yl}butanamide]",3.8
2,"O=C(CC(CO)N1CCN(c2ccc(OC(F)(F)F)cc2)CC1)Nc1ccc(Cl)cc1 (centres unmarked) [CAS: 2086257-77-2, N-(4-chlorophenyl)-4-hydroxy-3-{4-[4-(trifluoromethoxy)phenyl]piperazin-1-yl}butanamide, reference compound]",14
3,"O=C(CC(CO)N1CCCC(C2CN(c3ccc(OC(F)(F)F)cc3)C2)C1)Nc1ccc(Cl)cc1 (centres unmarked) [Example 6, N-(4-chlorophenyl)-4-hydroxy-3-(3-{1-[4-(trifluoromethoxy)phenyl]azetidin-3-yl}piperidin-1-yl)butanamide]",9.8
4,"O=C(CC(CO)N1CCCN(c2ccc(OC(F)(F)F)cc2)CC1)Nc1ccc(Cl)cc1 (centres unmarked) [Example 3, N-(4-chlorophenyl)-4-hydroxy-3-{4-[4-(trifluoromethoxy)phenyl]-1,4-diazepan-1-yl}butanamide]",5.2
5,"O=C(CC(CO)N1CC2=C(CN(c3ccc(OC(F)(F)F)cc3)C2)C1)Nc1ccc(Cl)cc1 (centres unmarked) [Example 4, N-(4-chlorophenyl)-4-hydroxy-3-{5-[4-(trifluoromethoxy)phenyl]-1H,2H,3H,4H,5H,6H-pyrrolo[3,4-c]pyrrol-2-yl}butanamide]",5.1
6,"O=C(CC(CCO)N1CCN(c2ccc(OC(F)(F)F)cc2)CC1)Nc1ccc(Cl)cc1 (centres unmarked) [Example 2, N-(4-chlorophenyl)-5-hydroxy-3-{4-[4-(trifluoromethoxy)phenyl]piperazin-1-yl}pentanamide]",8.4

# Continued, values first:
row,Kd [µM],Structure (SMILES)
1,12,"O=C(NCC(CO)N1CCN(c2ccc(OC(F)(F)F)cc2)CC1)c1ccc(Cl)cc1 (centres unmarked) [Example 1, 4-chloro-N-(3-hydroxy-2-{4-[4-(trifluoromethoxy)phenyl]piperazin-1-yl}propyl)benzamide]"
2,13.1,"O=C(CC(CO)N1CC2(CCN(c3ccc(OC(F)(F)F)cc3)C2)C1)Nc1ccc(Cl)cc1 (centres unmarked) [Example 7, N-(4-chlorophenyl)-4-hydroxy-3-{6-[4-(trifluoromethoxy)phenyl]-2,6-diazaspiro[3.4]octan-2-yl}butanamide]"
3,1.9,"O=C(CC(CO)N1CCCC2(CCCN(c3ccc(OC(F)(F)F)cc3)C2)C1)Nc1ccc(Cl)cc1 (centres unmarked) [Example 10, N-(4-chlorophenyl)-4-hydroxy-3-{8-[4-(trifluoromethoxy)phenyl]-2,8-diazaspiro[5.5]undecan-2-yl}butanamide]"
4,11.4,"O=C(CC(CO)N1CC2CN(c3ccc(OC(F)(F)F)cc3)CC2C1)Nc1ccc(Cl)cc1 (centres unmarked) [Example 9, N-(4-chlorophenyl)-4-hydroxy-3-{5-[4-(trifluoromethoxy)phenyl]-octahydropyrrolo[3,4-c]pyrrol-2-yl}butanamide]"
5,2.8,"O=C(CC(CO)N1CCCC2C1CCN2c1ccc(OC(F)(F)F)cc1)Nc1ccc(Cl)cc1 (centres unmarked) [Example 8, N-(4-chlorophenyl)-4-hydroxy-3-{1-[4-(trifluoromethoxy)phenyl]-octahydro-1H-pyrrolo[3,2-b]pyridin-4-yl}butanamide]"

# Tested on: islets of human T2D organ donors
# Assay: not given
# Conditions: acute exposure of the T2D islets; cited from earlier work
row,Structure (SMILES),glucose-stimulated insulin secretion (GSIS)
1,"O=C(CC(CO)N1CCN(c2ccc(OC(F)(F)F)cc2)CC1)Nc1ccc(Cl)cc1 (centres unmarked) [CAS: 2086257-77-2, N-(4-chlorophenyl)-4-hydroxy-3-{4-[4-(trifluoromethoxy)phenyl]piperazin-1-yl}butanamide, reference compound]",restored GSIS
